Measurements published in patent US11136311B2, “Heteroaromatic derivatives as NIK inhibitors” (Janssen Pharmaceutica NV, priority 2016, dated 2021).
Read-outs that look alike come from different tables or passages of the source.

How the values were obtained:
[1] = target: recombinant human NF-kappaB-inducing kinase (NIK/MAP3K14) (Homo sapiens (Human), UniProt Q99558); assay: Inhibition of auto-phosphorylation of recombinant human NIK/MAP3K14 activity (AlphaScreen); type: biochemical; details: averaged values over all measurements on all batches
recombinant human NF-kappaB-inducing kinase (NIK/MAP3K14), sequence (Q99558 whole entry): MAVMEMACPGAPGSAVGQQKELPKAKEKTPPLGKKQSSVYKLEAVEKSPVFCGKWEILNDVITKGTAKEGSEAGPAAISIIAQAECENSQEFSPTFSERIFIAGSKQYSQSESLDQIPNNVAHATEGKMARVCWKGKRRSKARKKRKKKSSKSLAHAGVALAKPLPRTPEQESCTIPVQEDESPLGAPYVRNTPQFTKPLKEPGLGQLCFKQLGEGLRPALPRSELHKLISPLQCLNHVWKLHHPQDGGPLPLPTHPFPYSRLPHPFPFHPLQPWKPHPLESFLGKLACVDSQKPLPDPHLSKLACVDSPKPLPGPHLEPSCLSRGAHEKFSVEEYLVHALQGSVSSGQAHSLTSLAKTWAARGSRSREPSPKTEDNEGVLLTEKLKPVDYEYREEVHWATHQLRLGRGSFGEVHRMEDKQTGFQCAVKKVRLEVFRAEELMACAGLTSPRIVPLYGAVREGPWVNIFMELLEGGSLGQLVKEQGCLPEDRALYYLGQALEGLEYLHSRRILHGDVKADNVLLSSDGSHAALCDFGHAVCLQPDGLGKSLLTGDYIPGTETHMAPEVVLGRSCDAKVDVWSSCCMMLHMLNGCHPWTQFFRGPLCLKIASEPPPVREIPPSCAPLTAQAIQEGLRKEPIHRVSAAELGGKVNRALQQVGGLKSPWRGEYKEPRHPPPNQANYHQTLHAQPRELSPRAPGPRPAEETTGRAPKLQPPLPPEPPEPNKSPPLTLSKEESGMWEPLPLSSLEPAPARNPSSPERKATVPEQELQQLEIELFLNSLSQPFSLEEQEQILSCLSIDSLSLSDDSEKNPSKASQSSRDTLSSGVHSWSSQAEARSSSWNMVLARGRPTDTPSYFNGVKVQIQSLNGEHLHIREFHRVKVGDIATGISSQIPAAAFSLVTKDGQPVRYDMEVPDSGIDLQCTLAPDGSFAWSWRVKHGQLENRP
Method: Inhibition of auto-phosphorylation of recombinant human NF-kappaB-inducing kinase (NIK/MAP3K14) activity (AlphaScreen®)
NIK/MAP3K14 auto-phosphorylation activity was measured using the AlphaScreen® (αscreen) format (Perkin Elmer). All compounds tested were dissolved in dimethyl sulfoxide (DMSO) and further dilutions were made in assay buffer. Final DMSO concentration was 1% (v/v) in assays. Assay buffer was 50 mM Tris pH 7.5 containing 1 mM EGTA (ethylene glycol tetraacetic acid), 1 mM DTT (dithiothreitol), 0.1 mM Na3VO4, 5 mM MgCl2, 0.01% Tween® 20. Assays were carried out in 384 well Alphaplates (Perkin Elmer). Incubations consisted of compound, 25 microM Adenosine-5′-triphosphate (ATP), and 0.2 nM NIK/MAP3K14. Incubations were initiated by addition of GST-tagged NIK/MAP3K14 enzyme, carried out for 1 h at 25° C. and terminated by addition of stop buffer containing anti-phospho-IKK Ser176/180 antibody. Protein A Acceptor and Glutathione-Donor beads were added before reading using an EnVision® Multilabel Plate Reader (Perkin Elmer). Signal obtained in the wells containing blank samples was subtracted from all other wells and IC50's were determined by fitting a sigmoidal curve to % inhibition of control versus Log10 compound concentration.

[2] = tested on: P-IKKα levels in L363 cells; assay: Effect of compounds on P-IKKα levels in L363 (NIK translocated multiple myeloma) cells; type: cell-based, human; details: averaged values, read-out: Inhibition of pIKKα_L-363 (IC50 (nM))
Method: Effect of compounds on P-IKKα levels in L363 (NIK translocated multiple myeloma) cells
All compounds tested were dissolved in DMSO and further dilutions were made in culture medium. Final DMSO concentration was 1% (v/v) in cell assays. The human L363 cells (ATCC) were cultured in RPMI 1640 medium supplemented with GlutaMax and 10% fetal calf serum (PAA). Cells were routinely maintained at densities of 0.2×10^6 cells per ml-1×10^6 cells per ml at 37° C. in a humidified 5% CO2 atmosphere. Cells were passaged twice a week splitting back to obtain the low density. Cells were seeded in 96 well plates (Nunc 167008) at 2×10^6 per ml media in a volume of 75 μl per well plus 25 μl 1 μg/ml recombinant human B-cell activating factor (BAFF/BLyS/TNFSF13B). Seeded cells were incubated at 37° C. in a humidified 5% CO2 atmosphere for 24 hr. Drugs and/or solvents were added (20 μl) to a final volume of 120 μl. Following 2 hr treatment plates were removed from the incubator and cell lysis was achieved by the addition of 30 μl 5× lysis buffer followed by shaking on a plate shaker at 4° C. for 10 min. At the end of this incubation lysed cells were centrifuged at 800×g for 20 min at 4° C. and the lysate was assessed for P-IKKα levels by sandwich immuno-assay carried out in anti-rabbit antibody coated Mesoscale plates. Within an experiment, the results for each treatment were the mean of 2 replicate wells. For initial screening purposes, compounds were tested using an 8 point dilution curve (serial 1:3 dilutions). For each experiment, controls (containing MG132 and BAFF but no test drug) and a blank incubation (containing MG132 and BAFF and 10 μM ADS125117, a test concentration known to give full inhibition) were run in parallel. The blank incubation value was subtracted from all control and sample values. To determine the IC50 a sigmoidal curve was fitted to the plot of % inhibition of control P-IKKα levels versus Log10 compound concentration.

[3] = tested on: JJN-3 cells; assay: Antiproliferative activity on JJN-3 (NIK translocated) multiple myeloma cells (CellTiter-Glo); type: cell-based, human; details: JJN-3 (NIK translocated) cells, 96 hr, averaged values, read-out: JJN-3 Proliferation inhibition (IC50 (nM))
Method: (§1) Determination of antiproliferative activity on JJN-3 (NIK translocated) and KMS12-BM (NIK WT) multiple myeloma cells
(§2) All compounds tested were dissolved in DMSO and further dilutions were made in culture medium. Final DMSO concentration was 0.3% (v/v) in cell proliferation assays. Viability was assessed using CellTiter-Glo cell viability assay kit (Promega). The human JJN-3 and KMS12-BM cells (DSMZ) were cultured in RPMI 1640 medium supplemented with 2 mM L-glutamine, and 10% fetal calf serum (PAA). Cells were routinely kept as suspension cells at 37° C. in a humidified 5% CO2 atmosphere. Cells were passaged at a seeding density of 0.2×10^6/ml twice a week. Cells were seeded in black tissue culture treated 96-well plates (Perkin Elmer). Densities used for plating ranged from 15000 (JJN3) to 20000 (KMS12BM) cells per well in a total volume of 135 μl medium. Drugs and/or solvents were added (15 μl) to a final volume of 150 μl. Following 96 hr of treatment, plates were removed from the incubator and allowed to equilibrate to room temperature for approx 10 min. 75 μl CellTiter-Glo reagent was added to each well that was then covered (Perkin Elmer Topseal) and shaken on plate shaker for 10 min. Luminescence was measured on a HTS Topcount (Perkin Elmer). Within an experiment, the results for each treatment were the mean of 2 replicate wells. For initial screening purposes, compounds were tested using a 9 point dilution curve (serial 1:3 dilutions). For each experiment, controls (containing no drug) and a blank incubation (containing cells read at the time of compound addition) were run in parallel. The blank value was subtracted from all control and sample values. For each sample, the mean value for cell growth (in relative light units) was expressed as a percentage of the mean value for cell growth of the control.

[4] = tested on: KMS12-BM cells; assay: Antiproliferative activity on KMS12-BM (NIK WT) multiple myeloma cells (CellTiter-Glo); type: cell-based, human; details: KMS12-BM (NIK WT) cells, 96 hr, averaged values, read-out: KMS-12 Proliferation inhibition (IC50 (nM))
Method: as §1, §2

[5] = Homo sapiens, L-363, L363 cells

Row | Compound | IC50 [1] [nM] | IC50 [2, 5] [nM] | IC50 ([3]; Homo sapiens, JJN-3, 96 h) [nM] | IC50 ([4]; Homo sapiens, KMS-12-BM, 96 h) [nM] | IC50 [4] [nM] | IC50 ([2]; L363 cells) [nM] | IC50 [3] [nM]
1 | Cc1cc(Nc2nccc(-c3cc(C#N)c4c(c3)[C@@](C)(CO)CN4)n2)n(CC2CCCOC2)n1 (mixture of isomers) [Compound 94] | 5.6 | 7 | 178 | 4170 |  |  | 
2 | Cc1cc(Nc2nccc(-c3cc(C#N)c4c(c3)[C@@](C)(CO)CN4)n2)n(CC2CCN(C)C(=O)C2)n1 (mixture of isomers) [Compound 171] | 6.2 | 1440 |  |  |  |  | 
3 | Cc1cc(Nc2nccc(-c3cc(C#N)c4c(c3)[C@@](C)(CO)CN4)n2)n(CC2CCn3ccnc3C2)n1 (mixture of isomers) [Compound 202] | 7.2 | 1950 |  |  |  |  | 
4 | CN1CCOCC1c1cc(Nc2nccc(-c3cc(C#N)c4c(c3)[C@@](C)(CO)CN4)n2)nn1C (mixture of isomers) [Compound 215] | 168 | 3490 |  |  |  |  | 
5 | Cc1cc(Nc2nccc(-c3cc(C#N)c4c(c3)[C@@](C)(CO)CN4)n2)n(CC2CCOC2)n1 (single isomer, unassigned) [Compound 81] | 4.3 | 11 | 195 |  | 851 |  | 
6 | Cc1cc(Nc2nccc(-c3cc(C#N)c4c(c3)[C@@](C)(CO)CN4)n2)n(CC2CCOC2)n1 (single isomer, unassigned) [Compound 82] | ~5 |  |  |  | 380 | 13 | 182
7 | Cc1cc(Nc2nccc(-c3cc(C#N)c4c(c3)[C@@](C)(CO)CN4)n2)n(CC2COCCO2)n1 (single isomer, unassigned) [Compound 84] | 11 |  | 437 |  | > 10000 | 11 | 
8 | Cc1cc(Nc2nccc(-c3cc(C#N)c4c(c3)[C@@](C)(CO)CN4)n2)n(CC2COCCO2)n1 (single isomer, unassigned) [Compound 85] | 9.8 |  |  |  | ~4900 | 31 | 380
9 | Cc1cc(Nc2nccc(-c3cc(C#N)c4c(c3)[C@@](C)(CO)CN4)n2)n(CC2CCCN(C)C2)n1 (single isomer, unassigned) [Compound 140] | 8.3 |  |  | 6460 |  | 145 | 174
10 | Cc1cc(Nc2nccc(-c3cc(C#N)c4c(c3)[C@@](C)(CO)CN4)n2)n(CC2CCCN(C)C2)n1 (single isomer, unassigned) [Compound 141] | 42 |  |  |  | > 10000 | 813 | 79
11 | Cc1nn(C)cc1Nc1nccc(-c2cc(C#N)c3c(c2)C(C)(CO)CN3)n1 (stereo not drawn) [Compound 7] |  | 2 | 112 | ~1740 |  |  | 
12 | CC(C)n1nc(Nc2nccc(-c3cc(C#N)c4c(c3)C(C)(CO)CN4)n2)cc1C(=O)NC1CCOCC1 (stereo not drawn) [Compound 35] | 7.9 | 4 | 209 | > 10000 |  |  | 
13 | COCCn1nc(C)cc1Nc1nccc(-c2cc(C#N)c3c(c2)[C@@](C)(CO)CN3)n1 [Compound 42] | 4.2 | 68 | 398 | 5980 |  |  | 
14 | COCCCn1nc(C)cc1Nc1nccc(-c2cc(C#N)c3c(c2)[C@@](C)(CO)CN3)n1 [Compound 49] |  | 11 | 134 | 2090 |  |  | 
15 | Cc1cc(Nc2nccc(-c3cc(C#N)c4c(c3)[C@@](C)(CO)CN4)n2)nn1CC1CCOCC1 [Compound 60] | 2 | 5 | 72 | ~501 |  |  | 
16 | Cc1cc(Nc2nccc(-c3cc(C#N)c4c(c3)[C@@](C)(CO)CN4)n2)nn1CC1CCCCO1 (stereo partly drawn) [Compound 70] | 3.8 | 6 |  |  | 1860 |  | 209
17 | Cc1cc(Nc2nccc(-c3cc(C#N)c4c(c3)[C@@](C)(CO)CN4)n2)nn1CC1CCCCO1 (stereo partly drawn) [Compound 71] | 2.8 |  |  |  | 813 | 4 | 102
18 | CN(C)C(=O)Cn1nc(Cl)cc1Nc1nccc(-c2cc(C#N)c3c(c2)[C@@](C)(CO)CN3)n1 [Compound 116] | 9.3 | 269 |  |  |  |  | 
19 | C[C@]1(CO)CNc2c(C#N)cc(-c3ccnc(Nc4cn(CC(F)F)nc4C(=O)N4CCCC4)n3)cc21 [Compound 189] | 17 | 51 |  |  |  |  | 
20 | CNC(=O)c1c(Nc2nccc(-c3cc(C#N)c4c(c3)[C@@](C)(CO)CN4)n2)cnn1C [Compound 190] | 11.7 | 110 |  |  |  |  | 
21 | Cn1ncc(Nc2nccc(-c3cc(C#N)c4c(c3)[C@@](C)(CO)CN4)n2)c1C(=O)N1CCCC1 [Compound 191] | 107 | 4470 |  |  |  |  | 
22 | Cn1ncc(Nc2nccc(-c3cc(C#N)c4c(c3)[C@@](C)(CO)CN4)n2)c1OC1COC1 [Compound 193] | 25.1 | 91 |  |  |  |  | 
23 | Cc1cc(Nc2nccc(-c3cc(C#N)c4c(c3)[C@@](C)(CO)CN4)n2)n(CC(=O)N(C)C)n1 [Compound 206] | 2.9 | 31 |  |  |  |  | 
24 | CC(C)Oc1nn(CCN2CCOCC2)cc1Nc1nccc(-c2cc(C#N)c3c(c2)[C@@](C)(CO)CN3)n1 [Compound 207] | 15.5 | 93 |  |  |  |  | 
25 | CN1CCN(Cc2c(Nc3nccc(-c4cc(C#N)c5c(c4)[C@@](C)(CO)CN5)n3)cnn2C)CC1 [Compound 209] | 28.2 | 141 |  |  |  |  | 
26 | CC(C)n1nc(C(=O)N(C)C2CC2)cc1Nc1nccc(-c2cc(C#N)c3c(c2)[C@@](C)(CO)CN3)n1 [Compound 211] | 14.8 | 204 |  |  |  |  | 
27 | Cc1cc(Nc2nccc(-c3cc(C#N)c4c(c3)[C@@](C)(CO)CN4)n2)n(CC2CCN(CC(=O)O)CC2)n1 [Compound 214] | 18.6 | 2630 |  |  |  |  | 
28 | CNC(=O)c1cc(Nc2nccc(-c3cc(C#N)c4c(c3)[C@@](C)(CO)CN4)n2)n(CC(C)C)n1 [Compound 219] | 9.5 | 100 | 214 |  |  |  | 
29 | Cn1ccc(Nc2nccc(-c3cc(C#N)c4c(c3)[C@@](C)(CN)CN4)n2)n1 [Compound 222] | 12 | 15 |  |  |  |  | 
30 | Cn1ccc(Nc2nccc(-c3cc(C#N)c4c(c3)[C@](C)(CN)CN4)n2)n1 [Compound 223] | 224 |  |  |  |  | 269 | 
